Test results as given in patent publication US20260042754A1, “Substituted Bicyclic Heteroaryl Sulfonamide Derivatives for the Treatment of Cancer” (NODUS ONCOLOGY LIMITED, priority 2022, published 2026).
pIC50: −log10 of the molar value.

Assays:
[1] = target: human PARG (PARG-NanoLuc fusion in HEK293T cells) (Homo sapiens (Human), UniProt Q86W56); experiment: PARG NanoBRET-based cellular target engagement assay; format: cell-based; conditions: HEK293T cells transfected with PARG-NanoLuc, NanoBRET probe 0.89 μM, 2 hours; read-out: PARG TE IC50
Description: PARG Nano-luciferase construct: The PARG-NanoLuc® fusion vector was generated by Promega, by inserting the full length human PARG cDNA sequence encoding the 976 amino acid protein (Gene ID: 8505, UniProt: Q86W56) into the pNLF1-C [CMV/Hygro] vector (C-terminal fusions with NanoLuc® enzyme).
PARG target engagement tracer synthesis: The NanoBRET tracer for PARG was prepared following a previously reported general tracer synthesis procedure.
PARG Probe Displacement Assay Using NanoBRET: HEK293T (DSMZ #ACC 635) cells transiently transfected with the PARG-NanoLuc fusion construct were resuspended in phenol red-free OptiMEM (Gibco #11058-021) to a concentration of 2.4×10^5 cells/mL. 9 μL per well were then added to a white 384-well low volume microplate (Greiner #784080) and incubated for 24 hours under standard growth conditions.
Then compound was dispensed into each well using an Echo dispenser (BeckmanCoulter) to yield the pre-specified final concentration of the range of concentrations to be tested (typically 8-point serial concentrations ranging from either from 0.01 to 10 μM, or from 0.001 to 1 μM, or from 0.0001 to 0.1 μM), and being volume-corrected with 100% DMSO (0.5% final DMSO concentration in reaction mixtures).
After mixing and an incubation at room temperature for 15 min 1 μl of the NanoBRET probe (at 0.89 μM final concentration) was added to the microplate using a multichannel pipette. The plate was mixed and incubated in a 5% CO2 environment at 37° C. for 2 hours, and then 5 μL per well of a solution consisting of a 1:31.25 dilution of Nano-Glo substrate (Promega) and a 1:500 dilution of NanoLuc extracellular inhibitor (Promega) in phenol red-free OptiMEM was added to each well followed by another mixing step. Filtered luminescence was measured on an EnVision plate reader (PerkinElmer) equipped with a 460 nm filter (donor) and a 645 nm filter (acceptor). BRET ratios were plotted as concentration-response curves fitted to a sigmoidal 4-parameter logistic model to calculate IC50 values (Scigilian Analyze).

[2] = target: Recombinant His-tagged human PARG protein (Homo sapiens (Human), UniProt Q86W56); experiment: PARG enzymatic assay (TFMU-ADPr fluorescence); format: biochemical; conditions: 1 nM enzyme, 200 μM TFMU-ADPr, read after 30 minutes
Description: Inhibition of PARG enzymatic activity by compounds was determined as follows: Recombinant His-tagged human PARG protein expressed in Sf21 insect cells (Adipogen AG, #40T-0022) was aliquoted and stored at −80° C. until use. The artificial enzyme substrate 4-(trifluoromethyl)umbelliferone (TFMU)-ADPr was prepared essentially as described (Drown B S et al, Cell Chemical Biology 2018) and stored at −20° C. as 10 mM stock solutions in DMSO (dimethyl sulfoxide) until use. For reactions, typical final concentration of the enzyme was 1 nM and of the TFMU-ADPr 200 μM. Reactions were carried out in black 384-well low volume round bottom assay plates (Corning, #4514) in a final volume of 10 μL. To this end, PARG was diluted to 1.67 nM in reaction buffer (50 mM K2HPO4, 50 mM KCl, 10 mM β-mercaptoethanol, pH 7.4) and 6 μL were dispensed per assay well using a multichannel pipette. Then compound was dispensed into each well using an Echo dispenser (BeckmanCoulter) to yield the pre-specified final concentration of the range of concentrations to be tested (typically 8-point serial concentrations ranging from either from 0.01 to 10 μM, or from 0.001 to 1 μM, or from 0.0001 to 0.1 μM), and being volume-corrected with 100% DMSO (0.5% final DMSO concentration in reaction mixtures). Plates were mixed, and after 15 minutes 4 μL TFMU-ADPr was added into each well using a multichannel pipette followed by brief mixing. Fluorescence intensity signals were then measured after 30 minutes on an EnVision microplate reader (PerkinElmer) using 380/10 nm and 535/25 nm filters for the excitation and emission, respectively (gain: 150). The assay window was set using DMSO control (top) and a control containing no PARG enzyme (bottom). Delta values were plotted as concentration-response curves fitted to a sigmoidal 4-parameter logistic model to calculate IC50 values (Scigilian Analyze).

Chain of human PARG (PARG-NanoLuc fusion in HEK293T cells) (Q86W56 whole entry, the tested form may be a part): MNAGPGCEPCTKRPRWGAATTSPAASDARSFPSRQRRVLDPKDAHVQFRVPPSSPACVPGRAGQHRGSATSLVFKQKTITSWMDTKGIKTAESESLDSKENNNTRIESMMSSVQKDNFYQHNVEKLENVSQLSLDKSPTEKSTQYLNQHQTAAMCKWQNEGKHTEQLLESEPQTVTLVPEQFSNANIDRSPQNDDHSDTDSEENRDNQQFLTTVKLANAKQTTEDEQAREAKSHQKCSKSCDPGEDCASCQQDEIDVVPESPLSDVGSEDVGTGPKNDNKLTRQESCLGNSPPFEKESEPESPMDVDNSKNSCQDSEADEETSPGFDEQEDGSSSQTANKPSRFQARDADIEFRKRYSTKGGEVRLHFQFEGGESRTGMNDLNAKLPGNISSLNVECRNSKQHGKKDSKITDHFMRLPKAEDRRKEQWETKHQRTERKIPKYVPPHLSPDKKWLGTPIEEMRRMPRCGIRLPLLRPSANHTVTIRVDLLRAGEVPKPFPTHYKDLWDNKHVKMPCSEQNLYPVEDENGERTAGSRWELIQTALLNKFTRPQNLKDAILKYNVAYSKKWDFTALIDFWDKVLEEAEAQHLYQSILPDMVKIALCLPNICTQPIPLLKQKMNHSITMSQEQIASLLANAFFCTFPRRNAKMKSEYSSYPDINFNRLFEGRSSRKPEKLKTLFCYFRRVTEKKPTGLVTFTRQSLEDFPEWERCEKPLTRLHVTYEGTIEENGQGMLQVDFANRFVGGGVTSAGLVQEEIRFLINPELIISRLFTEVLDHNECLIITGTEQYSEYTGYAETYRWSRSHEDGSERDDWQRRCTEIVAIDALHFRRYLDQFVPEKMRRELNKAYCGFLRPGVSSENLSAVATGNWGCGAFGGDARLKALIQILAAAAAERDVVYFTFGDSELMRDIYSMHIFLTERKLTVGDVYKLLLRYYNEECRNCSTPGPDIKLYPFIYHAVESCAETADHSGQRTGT
Chain of Recombinant His-tagged human PARG protein (Q86W56 whole entry): as the sequence (Q86W56 whole entry, the tested form may be a part) above

Structure (SMILES)	pIC50 [1]	pIC50 [2]
CO/N=c1\[nH]c2ccc(S(=O)(=O)NC3(C)CC3)cc2c(=O)n1Cc1cnn(C(F)(F)F)c1 [Example 6, 2-methoxyimino-N-(1-methylcyclopropyl)-4-oxo-3-[[1-(trifluoromethyl)pyrazol-4-yl]methyl]-1H-quinazoline-6-sulfonamide]	6.00 to 7.00	6.00 to 7.00
CO/N=c1\[nH]c2c(N3CCN(C(=O)C(F)(F)C4(O)CCC4)[C@H](C)C3)cc(S(=O)(=O)NC3(C)CC3)cc2c(=O)n1Cc1cnn(C)c1 (single isomer, unassigned) [Example 43]	> 7.52	> 7.52
CO/N=c1\[nH]c2c(N3CCN(C(=O)N(C)C4CC4)[C@H](C)C3)cc(S(=O)(=O)NC3(C)CC3)cc2c(=O)n1Cc1cnn(C)c1 (single isomer, unassigned) [Example 44]	> 7.52	> 7.52
CC(C)O/N=c1\[nH]c2ccc(S(=O)(=O)NC3(C)CC3)cc2c(=O)n1Cc1cnn(C)c1 [Example 11, 2-isopropoxyimino-N-(1-methylcyclopropyl)-3-[(1-methylpyrazol-4-yl)methyl]-4-oxo-1H-quinazoline-6-sulfonamide]	7.00 to 7.52	> 7.52
CO/N=c1\[nH]c2c(-c3ccc(C4(O)CCC4=O)cc3)cc(S(=O)(=O)NC3(C)CC3)cc2c(=O)n1Cc1cnn(C)c1 (stereo not drawn) [Example 22, (E)-8-(4-(1-hydroxy-2-oxocyclobutyl)phenyl)-2-(methoxyimino)-3-((1-methyl-1H-pyrazol-4-yl)methyl)-N-(1-methylcyclopropyl)-4-oxo-1,2,3,4-tetrahydroquinazoline-6-sulfonamide]	7.00 to 7.52	> 7.52
CO/N=c1\[nH]c2c(N3CCN(C(=O)C(F)(F)F)[C@H](C)C3)cc(S(=O)(=O)NC3(C)CC3)cc2c(=O)n1Cc1cnn(C)c1 [Example 42, (R,E)-2-(methoxyimino)-3-((1-methyl-1H-pyrazol-4-yl)methyl)-8-(3-methyl-4-(2,2,2-trifluoroacetyl)piperazin-1-yl)-N-(1-methylcyclopropyl)-4-oxo-1,2,3,4-tetrahydroquinazoline-6-sulfonamide]	> 7.52	> 7.52
